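Five concentrations, 48 hours, 96-well plates. Abbreviation: GI50, concentration required for 50% inhibition of growth.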 The source made the active and inactive calls. Rule as the data show it: active = GI50 up to about 1.1 µM and inactive = higher.
Tests used:
Assay in all cases: growth of human tumour cells (NCI), 48 h
OVCAR-8 = tested on: OVCAR-8
SNB-78 = tested on: SNB-78
RPMI-8226 = tested on: RPMI-8226
LXFL 529 = tested on: LXFL 529
SK-MEL-28 = tested on: SK-MEL-28
NCI-H23 = tested on: NCI-H23
ACHN = tested on: ACHN
OVCAR-3 = tested on: OVCAR-3
SN12C = tested on: SN12C
SF-268 = tested on: SF-268
DLD-1 = tested on: DLD-1
HOP-92 = tested on: HOP-92
TK-10 = tested on: TK-10
CAKI-1 = tested on: CAKI-1
DMS-114 = tested on: DMS-114
HCC 2998 = tested on: HCC 2998
COLO 205 = tested on: COLO 205
K562 = tested on: K562
UO-31 = tested on: UO-31
SNB-75 = tested on: SNB-75
Malme-3M = tested on: Malme-3M
HCT-116 = tested on: HCT-116
U-251 = tested on: U-251
SK-MEL-5 = tested on: SK-MEL-5
UACC-62 = tested on: UACC-62
HOP-62 = tested on: HOP-62
NCI-H460 = tested on: NCI-H460
M19-MEL = tested on: M19-MEL
SF-295 = tested on: SF-295
A498 = tested on: A498
MOLT-4 = tested on: MOLT-4
LOX IMVI = tested on: LOX IMVI
HT-29 = tested on: HT-29
M14 = tested on: M14
SF-539 = tested on: SF-539
KM-20L2 = tested on: KM-20L2
EKVX = tested on: EKVX
SK-MEL-2 = tested on: SK-MEL-2
A549 = tested on: A549
HL-60 = tested on: HL-60
OVCAR-5 = tested on: OVCAR-5
RXF 393 = tested on: RXF 393
786-0 = tested on: 786-0
NCI-H226 = tested on: NCI-H226
UACC-257 = tested on: UACC-257
CCRF-CEM = tested on: CCRF-CEM
IGROV-1 = tested on: IGROV-1
SK-OV-3 = tested on: SK-OV-3
SW-620 = tested on: SW-620
KM12 = tested on: KM12
HCT-15 = tested on: HCT-15
XF498 = tested on: XF498
NCI-H522 = tested on: NCI-H522
OVCAR-4 = tested on: OVCAR-4
SNB-19 = tested on: SNB-19
DMS-273 = tested on: DMS-273
SR = tested on: SR

## C/C(CC(=O)Nc1ccc(NC(=O)/C(C)=N/NS(=O)(=O)c2ccc(C)cc2)cc1)=N\NS(=O)(=O)c1ccc(C)cc1
OVCAR-8
  GI50: > 100 µM (inactive)
SNB-78
  GI50: > 100 µM (inactive)
RPMI-8226
  GI50: > 100 µM (inactive)
LXFL 529
  GI50: > 100 µM (inactive)
SK-MEL-28
  GI50: > 100 µM (inactive)
NCI-H23
  GI50: > 100 µM (inactive)
ACHN
  GI50: > 100 µM (inactive)
OVCAR-3
  GI50: > 100 µM (inactive)
SN12C
  GI50: > 100 µM (inactive)
SF-268
  GI50: > 100 µM (inactive)
DLD-1
  GI50: > 100 µM (inactive)
HOP-92
  GI50: > 100 µM (inactive)
TK-10
  GI50: > 100 µM (inactive)
CAKI-1
  GI50: > 100 µM (inactive)
DMS-114
  GI50: > 100 µM (inactive)
HCC 2998
  GI50: > 100 µM (inactive)
COLO 205
  GI50: > 100 µM (inactive)
K562
  GI50: > 100 µM (inactive)
UO-31
  GI50: > 100 µM (inactive)
SNB-75
  GI50: > 100 µM (inactive)
Malme-3M
  GI50: > 100 µM (inactive)
HCT-116
  GI50: > 100 µM (inactive)
U-251
  GI50: > 100 µM (inactive)
SK-MEL-5
  GI50: > 100 µM (inactive)
UACC-62
  GI50: > 100 µM (inactive)
HOP-62
  GI50: > 100 µM (inactive)
NCI-H460
  GI50: > 100 µM (inactive)
M19-MEL
  GI50: > 100 µM (inactive)
SF-295
  GI50: > 100 µM (inactive)
A498
  GI50: > 100 µM (inactive)
MOLT-4
  GI50: > 100 µM (inactive)
LOX IMVI
  GI50: > 100 µM (inactive)
HT-29
  GI50: > 100 µM (inactive)
M14
  GI50: > 100 µM (inactive)
SF-539
  GI50: > 100 µM (inactive)
KM-20L2
  GI50: > 100 µM (inactive)
EKVX
  GI50: > 100 µM (inactive)
SK-MEL-2
  GI50: > 100 µM (inactive)
A549
  GI50: > 100 µM (inactive)
HL-60
  GI50: > 100 µM (inactive)
OVCAR-5
  GI50: > 100 µM (inactive)
RXF 393
  GI50: > 100 µM (inactive)
786-0
  GI50: > 100 µM (inactive)
NCI-H226
  GI50: > 100 µM (inactive)
UACC-257
  GI50: > 100 µM (inactive)
CCRF-CEM
  GI50: > 10 µM (inactive)
IGROV-1
  GI50: > 100 µM (inactive)
SK-OV-3
  GI50: > 100 µM (inactive)
SW-620
  GI50: > 100 µM (inactive)
KM12
  GI50: > 100 µM (inactive)
HCT-15
  GI50: > 100 µM

## CCOC(=O)C1=C(N)N(c2ccccc2)/C(=C(/C#N)c2nc3ccccc3[nH]2)S1
OVCAR-8
  GI50: > 100 µM (inactive)
SNB-78
  GI50: > 100 µM (inactive)
LXFL 529
  GI50: > 100 µM (inactive)
SK-MEL-28
  GI50: > 100 µM (inactive)
NCI-H23
  GI50: > 100 µM (inactive)
ACHN
  GI50: > 100 µM (inactive)
OVCAR-3
  GI50: > 100 µM (inactive)
XF498
  GI50: > 100 µM (inactive)
SN12C
  GI50: > 100 µM (inactive)
SF-268
  GI50: 80.9 µM (inactive)
DLD-1
  GI50: > 100 µM (inactive)
HOP-92
  GI50: > 100 µM (inactive)
TK-10
  GI50: > 100 µM (inactive)
CAKI-1
  GI50: > 100 µM (inactive)
COLO 205
  GI50: > 100 µM (inactive)
K562
  GI50: > 100 µM (inactive)
UO-31
  GI50: > 100 µM (inactive)
SNB-75
  GI50: > 100 µM (inactive)
Malme-3M
  GI50: > 100 µM (inactive)
HCT-116
  GI50: > 100 µM (inactive)
U-251
  GI50: > 100 µM (inactive)
SK-MEL-5
  GI50: > 100 µM (inactive)
UACC-62
  GI50: > 100 µM (inactive)
HOP-62
  GI50: > 100 µM (inactive)
NCI-H522
  GI50: > 100 µM (inactive)
OVCAR-4
  GI50: > 100 µM (inactive)
NCI-H460
  GI50: 43 µM (inactive)
M19-MEL
  GI50: > 100 µM (inactive)
SF-295
  GI50: > 100 µM (inactive)
A498
  GI50: > 100 µM (inactive)
MOLT-4
  GI50: > 100 µM (inactive)
LOX IMVI
  GI50: > 100 µM (inactive)
HT-29
  GI50: > 100 µM (inactive)
M14
  GI50: > 100 µM (inactive)
SF-539
  GI50: > 100 µM (inactive)
KM-20L2
  GI50: > 100 µM (inactive)
EKVX
  GI50: > 100 µM (inactive)
SK-MEL-2
  GI50: > 100 µM (inactive)
A549
  GI50: > 100 µM (inactive)
HL-60
  GI50: > 100 µM (inactive)
OVCAR-5
  GI50: > 100 µM (inactive)
RXF 393
  GI50: > 100 µM (inactive)
786-0
  GI50: > 100 µM (inactive)
NCI-H226
  GI50: > 100 µM (inactive)
UACC-257
  GI50: > 100 µM (inactive)
CCRF-CEM
  GI50: > 100 µM (inactive)
IGROV-1
  GI50: > 100 µM (inactive)
SK-OV-3
  GI50: > 100 µM (inactive)
SNB-19
  GI50: > 100 µM (inactive)
SW-620
  GI50: > 100 µM (inactive)
DMS-273
  GI50: > 100 µM (inactive)
HCT-15
  GI50: > 100 µM

## CC(C)=CCC/C(C)=C/Cc1c(O)c(C)cc2c1[nH]c1cc(O)ccc12
OVCAR-8
  GI50: > 25 µM (inactive)
SNB-78
  GI50: > 25 µM (inactive)
RPMI-8226
  GI50: > 25 µM (inactive)
LXFL 529
  GI50: > 25 µM (inactive)
SK-MEL-28
  GI50: > 25 µM (inactive)
ACHN
  GI50: > 25 µM (inactive)
OVCAR-3
  GI50: > 25 µM (inactive)
SN12C
  GI50: > 25 µM (inactive)
SF-268
  GI50: > 25 µM (inactive)
DLD-1
  GI50: > 25 µM (inactive)
HOP-92
  GI50: > 25 µM (inactive)
TK-10
  GI50: > 25 µM (inactive)
DMS-114
  GI50: > 25 µM (inactive)
HCC 2998
  GI50: > 25 µM (inactive)
COLO 205
  GI50: > 25 µM (inactive)
K562
  GI50: > 25 µM (inactive)
UO-31
  GI50: > 25 µM (inactive)
Malme-3M
  GI50: > 25 µM (inactive)
HCT-116
  GI50: > 25 µM (inactive)
U-251
  GI50: > 25 µM (inactive)
SK-MEL-5
  GI50: > 25 µM (inactive)
UACC-62
  GI50: > 25 µM (inactive)
HOP-62
  GI50: > 25 µM (inactive)
NCI-H522
  GI50: > 25 µM (inactive)
OVCAR-4
  GI50: > 25 µM (inactive)
NCI-H460
  GI50: > 25 µM (inactive)
M19-MEL
  GI50: > 25 µM (inactive)
MOLT-4
  GI50: > 25 µM (inactive)
LOX IMVI
  GI50: > 25 µM (inactive)
HT-29
  GI50: > 25 µM (inactive)
M14
  GI50: > 25 µM (inactive)
SF-539
  GI50: > 25 µM (inactive)
KM-20L2
  GI50: > 25 µM (inactive)
SK-MEL-2
  GI50: > 25 µM (inactive)
A549
  GI50: > 25 µM (inactive)
SR
  GI50: > 25 µM (inactive)
HL-60
  GI50: > 25 µM (inactive)
OVCAR-5
  GI50: > 25 µM (inactive)
RXF 393
  GI50: > 25 µM (inactive)
786-0
  GI50: > 25 µM (inactive)
NCI-H226
  GI50: > 25 µM (inactive)
CCRF-CEM
  GI50: > 25 µM (inactive)
IGROV-1
  GI50: > 25 µM (inactive)
SK-OV-3
  GI50: > 25 µM (inactive)
SNB-19
  GI50: > 25 µM (inactive)
SW-620
  GI50: > 25 µM (inactive)
DMS-273
  GI50: > 25 µM (inactive)
KM12
  GI50: > 25 µM (inactive)
HCT-15
  GI50: > 25 µM
